Converted amounts (≈) assume the structure as drawn. “And” between values parts separate entries of the source, which are not always exact repeats. Equal values may be shown once.
Experiments:
[1] = tested on: H.Ep.-2 cells infected with HSV-1; assay: Metabolism in HSV-1-infected H.Ep.-2 cells, SAX HPLC; format: cell-based, human; conditions: H.Ep.-2 cells infected with HSV-1, 8 hours, Fig. 4
Procedure: The in vivo metabolism of D- and L-2'CdG was also measured in HSV-[TK+]-infected, HSV-[TK-]-infected and mock infected H.Ep.-2 cells (human epidermal carcinoma cells, ATCC CCL23). Uninfected and infected cells were incubated in fresh medium containing 2 µCi/ml of either [^3H]-D- or L-2'CdG, as described above, to measure the metabolism of these enantiomers. After 8 hours the cells were harvested and washed free of medium with PBS, and extracts were prepared with cold 0.5 N perchloric acid for 0.5 hr. The extract was then neutralized with potassium bicarbonate and the resulting precipitate was removed by centrifugation. The supernatant was lyophilized to dryness and the acid-soluble metabolites were separated using SAX HPLC as described above.
While these findings are similar to those obtained with the isolated viral kinase, they differ from the resulted with the isolated enzyme in that relatively more di- and triphosphate were formed from L-2'CdG.

[2] = tested on: MRC5 cell monolayer cultures; assay: Drug cytotoxicity (gross morphology) in MRC5 cell monolayer cultures; format: cell-based
[3] = tested on: MRC5 cell monolayer cultures; assay: as above; format: cell-based; remark: listed apart in the source
Procedure: (§1) The D- and L-enantiomers of 2'-CdG were prepared from racemic C-2,6-DAPR by an enzymatic method as described above Secrist et al. (J. Med. Chem. 30:746, 1987). The effectiveness of racemic-2'-CdG and of D-2'-CdG in reducing CMV yields in MRC5 cell monolayer cultures was determined by a plaque assay with the results set forth in tables 6 and 7.

[4] = tested on: CMV; assay: CMV yield reduction in MRC5 cell monolayer cultures (plaque assay); format: cell-based, human CMV; conditions: for CMV Yield PFU/mL: virus controls 1.1 x 10^5; for CMV Yield log10 PFU/mL: virus controls 5.1
Procedure: as §1

[5] = tested on: human CMV; assay: In vitro activity against human CMV in human foreskin fibroblast cells; format: cell-based
Procedure: The in vitro activity of D-2'-CdG was also compared with the current investigational drug of choice for human CMV, DHPG. These experiments were carried out in human foreskin fibroblast cells.

[6] = tested on: human CMV; assay: Intravitreal human CMV infection in rabbits; format: in vivo, New Zealand white rabbits; conditions: intravitreal injection, 100 µg in 100 µl, 48-hour intervals beginning at day 4
Description: The symptoms included vitritis, iritis, retinal pathology (micro hemorrhages and focal necrosis of the retinal surface), corneal stromal haze and neovascularization, and corneal endothelial pigmented precipitates. […] The intravitreal route offers some significant advantages for intraocular infections including: 1) delivery of maximal concentrations of drug to the desired site of action; 2) increased potential for sustained release (i.e., longer half-life, T1/2) of the drug; and 3) reduced potential for systemic toxicity.

[7] = tested on: HBV; assay: HBV DNA production and replication in 2.2.15 cell cultures; format: cell-based, Hepatitis B virus (HBV); conditions: for INTRACELLULAR HBV DNA INTEG. / INTRACELLULAR HBV DNA MONO. / INTRACELLULAR HBV DNA RI: 24 hours following 10th day of treatment; for HBV DNA IN CULTURE MEDIUM DAY 0: day 0 of treatment
Procedure: 2'-CdG was tested at three concentrations (50 ng/ml, 500 ng/ml, and 5 ug/ml) against the HBV-producing, human liver cell line, 2.2.15 (Sells et al., J. Virol. 62:2836, 1989). A racemic (D,L) preparation, as well as the purified D and L isomers were tested. For these analyses compounds were tested in duplicate at all concentrations. Ara-AMP and ddG (2'3'-dideoxyguanosine) were used as HBV inhibitory control compounds. […] The nucleoside analog, ddG was used as an additional control compound since ddG has activity against duck hepatitis B virus in chronically infected Peking ducks (Lee et al., Antimicrob. Agents Chemother. 33:336, 1989) and 2'-CdG is also a deoxyguanosine analog.
2.2.15 cells were seeded in 6 well culture plates and grown to confluence over a 10 day period in medium with 5% FBS. Test compounds were then added daily for a continuous 10 day period in medium with 1% dialyzed FBS. […] Compounds were tested, in duplicate cultures, at 3 concentrations covering a 100-fold range. Culture medium (changed daily during the treatment period) was collected and stored for analysis of extracellular (virion) HBV DNA from days 0, 3, 6, and 10 of the treatment period. This allowed for an analysis of the level of HBV virion production during discrete 24 hour intervals and reduced the potential for the buildup of toxic metabolites derived from the test compounds. Treated cells were lysed following the 10th day of treatment for the analysis of intracellular HBV genomic forms. HBV DNA was analyzed in a quantitative manner for (i) overall levels (both extracellular and intracellular DNA) and (ii) the relative rate of HBV replication (intracellular DNA only).
HBV DNA levels were measured by comparison to known amounts of HBV DNA standards applied to every nitrocellulose filter (gel or slot blot) using an AMBIS Beta Scanner. Standard curves, generated by multiple analyses, were used to correlate CPM measurements with relative levels of target HBV DNA. The levels of HBV DNA in each of three classes of intracellular viral genomic forms were individually quantitated: integrated HBV DNA, episomal monomeric genomes and HBV DNA replication intermediates (RI). Integrated HBV DNA was used to normalize the relative amounts of DNA in each lane because the levels of this class of HBV DNA would be expected to remain constant on a per cell basis. The levels of the monomeric HBV genomes and RI were used as an indicator of the relative level of HBV replication.

`Nc1nc2c(ncn2[C@@H]2C[C@H](CO)[C@@H](O)C2)c(=O)[nH]1` [D-2'-CdG, [1R,3S,4R-(1α,3β,4α)]-D-2-Amino-1,9-dihydro-9-[3-hydroxy-4-(hydroxymethyl)cyclopentyl]-6H-purin-6-one] was tested, and the principal soluble metabolite [1] was “the triphosphate”, the “Drug Cytotoxicity (Gross Morphology)” value ([2]; 0.1 µM) was 0 and the “Drug Cytotoxicity (Gross Morphology)” value ([2]; 1.0 µM) was 0. The “Drug Cytotoxicity (Gross Morphology)” value ([2]; 10 µM) was 0, the “Drug Cytotoxicity (Gross Morphology)” value ([2]; 100 µM) was “slight toxicity” and the “Drug Cytotoxicity (Gross Morphology)” value ([3]; 0.32 µM) was 0. For the same molecule, the “Drug Cytotoxicity (Gross Morphology)” value ([3]; 3.2 µM) was 0, the “Drug Cytotoxicity (Gross Morphology)” value ([3]; 32 µM) was “v. sl. toxicity” and the “Drug Cytotoxicity (Gross Morphology)” value ([3]; 320 µM) was “toxic”. For the same molecule, the “CMV Yield PFU/mL” value ([4]; 0.1 µM) was 3.8 x 10^4 PFU/mL, the “CMV Yield log10 PFU/mL” value ([4]; 0.1 µM) was 4.6 log10 PFU/mL and the “CMV Yield PFU/mL” value ([4]; 0.32 µM) was 1.4 x 10^4 PFU/mL. For the same molecule, the “CMV Yield log10 PFU/mL” value ([4]; 0.32 µM) was 4.1 log10 PFU/mL, the “CMV Yield PFU/mL” value ([4]; 1.0 µM) was 5.4 x 10^3 PFU/mL and the “CMV Yield log10 PFU/mL” value ([4]; 1.0 µM) was 3.7 log10 PFU/mL. The “CMV Yield PFU/mL” value ([4]; 3.2 µM) was 8.4 x 10^2 PFU/mL, the “CMV Yield log10 PFU/mL” value ([4]; 3.2 µM) was 2.9 log10 PFU/mL and the “CMV Yield PFU/mL” value ([4]; 10 µM) was 2 x 10^1 PFU/mL. For the same molecule, the “CMV Yield log10 PFU/mL” value ([4]; 10 µM) was 1.3 log10 PFU/mL, the “CMV Yield PFU/mL” value ([4]; 32 µM) was 0 PFU/mL and the “CMV Yield PFU/mL” value ([4]; 100 µM) was 0 PFU/mL. The inhibition at 0.1 µM ([4]; Human betaherpesvirus 5, MRC5, 0.1 µM, read-out: Reduction (%) of CPE by D-2'CdG at Time of Virus Harvest) was 0%, the inhibition at 0.32 µM ([4]; Human betaherpesvirus 5, MRC5, 0.32 µM, read-out: Reduction (%) of CPE by D-2'CdG at Time of Virus Harvest) was 0% and the inhibition at 1 µM ([4]; Human betaherpesvirus 5, MRC5, 1.0 µM, read-out: Reduction (%) of CPE by D-2'CdG at Time of Virus Harvest) was 10%. For the same molecule, the inhibition at 3.2 µM ([4]; Human betaherpesvirus 5, MRC5, 3.2 µM, read-out: Reduction (%) of CPE by D-2'CdG at Time of Virus Harvest) was 10%, the inhibition at 10 µM ([4]; Human betaherpesvirus 5, MRC5, 10 µM, read-out: Reduction (%) of CPE by D-2'CdG at Time of Virus Harvest) was 25% and the inhibition at 32 µM ([4]; Human betaherpesvirus 5, MRC5, 32 µM, read-out: Reduction (%) of CPE by D-2'CdG at Time of Virus Harvest) was 50%. The inhibition at 100 µM ([4]; Human betaherpesvirus 5, MRC5, 100 µM, read-out: Reduction (%) of CPE by D-2'CdG at Time of Virus Harvest) was 50%, the “antiviral potency relative to DHPG” value [5] was “more than 3 times” and the EC50 ([5]; Human betaherpesvirus 5, read-out: ED50 value (median dose at which 50% antiviral efficacy is observed)) was 0.06 µg/mL (≈ 0.226 µM). The “clinical effect compared to placebo” value [6] was “effective in reducing the development of retinal pathology and in reducing the severity of the vitritis and iritis”, the “clinical outcome compared to ganciclovir (DHPG) under the same conditions” value [6] was “clinically better than treatment with ganciclovir” and the “anti-HBV activity (in words)” value ([7]; 50 ng/ml to 5 ug/ml, 2.2.15 cells) was “as active an inhibitor of HBV replication as the racemic mixture”. The “INTRACELLULAR HBV DNA INTEG.” value ([7]; 50ng/ml, listed as D, 2CdG) was 1.6 PG/UG CELL DNA and 1.3 PG/UG CELL DNA, the “INTRACELLULAR HBV DNA MONO.” value ([7]; 50ng/ml, listed as D, 2CdG) was 1.3 PG/UG CELL DNA and 2.1 PG/UG CELL DNA and the “INTRACELLULAR HBV DNA RI” value ([7]; 50ng/ml, listed as D, 2CdG) was 16 PG/UG CELL DNA and 20 PG/UG CELL DNA. For the same molecule, the “HBV DNA IN CULTURE MEDIUM DAY 0” value ([7]; 50ng/ml, listed as D, 2CdG) was 100 pg/mL and 77 pg/mL, the “HBV DNA IN CULTURE MEDIUM DAY 3” value ([7]; 50ng/ml, listed as D, 2CdG) was 110 pg/mL and 70 pg/mL and the “HBV DNA IN CULTURE MEDIUM DAY 6” value ([7]; 50ng/ml, listed as D, 2CdG) was 38 pg/mL and 40 pg/mL. For the same molecule, the “INTRACELLULAR HBV DNA RI” value ([7]; 500ng/ml) was 1 PG/UG CELL DNA, the “INTRACELLULAR HBV DNA INTEG.” value ([7]; 500ng/ml, listed as D, 2-CdG) was 1.0 PG/UG CELL DNA and 1.6 PG/UG CELL DNA and the “INTRACELLULAR HBV DNA MONO.” value ([7]; 500ng/ml, listed as D, 2-CdG) was 1.9 PG/UG CELL DNA and 1.8 PG/UG CELL DNA. The “HBV DNA IN CULTURE MEDIUM DAY 0” value ([7]; 500ng/ml, listed as D, 2-CdG) was 80 pg/mL and 90 pg/mL, the “HBV DNA IN CULTURE MEDIUM DAY 3” value ([7]; 500ng/ml, listed as D, 2-CdG) was 36 pg/mL and 43 pg/mL and the “HBV DNA IN CULTURE MEDIUM DAY 6” value ([7]; 500ng/ml, listed as D, 2-CdG) was 15 pg/mL and 14 pg/mL. The “INTRACELLULAR HBV DNA MONO.” value ([7]; 5 ug/ml) was 2.0 PG/UG CELL DNA, the “HBV DNA IN CULTURE MEDIUM DAY 0” value ([7]; 5 ug/ml, listed as D, 2-CdG) was 100 pg/mL and 120 pg/mL and the “HBV DNA IN CULTURE MEDIUM DAY 3” value ([7]; 5 ug/ml, listed as D, 2-CdG) was 18 pg/mL and 21 pg/mL. For the same molecule, the “HBV DNA IN CULTURE MEDIUM DAY 6” value ([7]; 5 ug/ml, listed as D, 2-CdG) was 3 pg/mL and 6 pg/mL and the “HBV DNA IN CULTURE MEDIUM DAY 10” value ([7]; 5 ug/ml, day 10) was 0 pg/mL.

Reference: patent EP0684822B1, “CARBOCYCLIC DEOXYGUANOSINE ANALOGS FOR THE TREATMENT OF VIRAL INFECTIONS” (SOUTHERN RESEARCH INSTITUTE, priority 1993, dated 1994)
